Consider 13 molecules from US5658897A, “Cyclopentane(ene) heptanoic or cyclopentane(ene) heptenoic acid, 2-hydrocarbyl phosphinyloxyalkyl or phosphonamidoalkyl as therapeutic agents” (Allergan, priority 1996, dated 1997).

“Also recorded” adds a separate entry of the source. Read-outs that look alike come from different tables or passages of the source.

One data set deals with FP receptor (Felis catus, UniProt A0ABI7XJ69). In words: FP activity, contraction of the isolated feline iris sphincter. To be noted: read-out: EC50 (nM) FP.
The test system of a further data set is DP/EP2. In words: DP/EP2 activity in isolated smooth muscle preparations. To be noted: read-out: EC50 (nM) DP/EP2.
The target in a further data set is EP4 (Oryctolagus cuniculus, UniProt Q28691). Conditions: for IC25: read-out: IC25 EP4.
Another data set concerns EP3. In words: EP3 activity in isolated smooth muscle preparations. Conditions: read-out: EC50 (nM) EP3.
The conditions of data set [1]: cited from earlier work; for ocular hypotensive activity: in vivo.
Data set [2] has as its system intraocular pressure in the dog. In words: Dog intraocular pressure by applanation pneumatonometry. The data set is classed as in vivo. Conditions: 0.1%, 25 μl to ocular surface. On the procedure: The effects of certain of the compounds of the working examples on intraocular pressure are also measured. The compounds of Examples 3 and 7 are prepared at 0.1% w/v concentration in a vehicle comprising 0.1% polysorbate 80 and 10 mM tris (hydroxy methyl) aminomethane hydrochloride (TRIS) base. Dogs are treated by administering 25 μl to the ocular surface, while the contralateral eye receives vehicle as a control. Intraocular pressure is measured by applanation pneumatonometry. Dog intraocular pressure is measured immediately before drug administration and at 2, 4, 6 and 24 hours thereafter. Each of the compounds tested lower intraocular pressure in the dog model.

The test system of the next data set is ocular surface. Conditions: cited from earlier work.
The target in another data set is T1, TP (Rattus norvegicus, UniProt P34978).
T1 sequence (P34978 1-341): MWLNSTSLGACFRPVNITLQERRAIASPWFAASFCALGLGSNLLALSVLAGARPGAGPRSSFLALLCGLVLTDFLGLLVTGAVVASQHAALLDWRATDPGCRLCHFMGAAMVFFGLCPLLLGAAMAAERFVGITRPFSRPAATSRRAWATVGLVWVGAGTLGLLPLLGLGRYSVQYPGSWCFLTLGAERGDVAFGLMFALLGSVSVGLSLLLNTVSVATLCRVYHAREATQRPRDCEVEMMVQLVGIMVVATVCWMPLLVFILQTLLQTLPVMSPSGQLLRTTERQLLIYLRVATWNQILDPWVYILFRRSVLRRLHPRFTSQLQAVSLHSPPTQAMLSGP

Another data set relates to EP1. In words: EP1 activity in isolated smooth muscle preparations. To be noted: read-out: EC50 (nM) EP1.

Chain of EP4 (Q28691 whole entry): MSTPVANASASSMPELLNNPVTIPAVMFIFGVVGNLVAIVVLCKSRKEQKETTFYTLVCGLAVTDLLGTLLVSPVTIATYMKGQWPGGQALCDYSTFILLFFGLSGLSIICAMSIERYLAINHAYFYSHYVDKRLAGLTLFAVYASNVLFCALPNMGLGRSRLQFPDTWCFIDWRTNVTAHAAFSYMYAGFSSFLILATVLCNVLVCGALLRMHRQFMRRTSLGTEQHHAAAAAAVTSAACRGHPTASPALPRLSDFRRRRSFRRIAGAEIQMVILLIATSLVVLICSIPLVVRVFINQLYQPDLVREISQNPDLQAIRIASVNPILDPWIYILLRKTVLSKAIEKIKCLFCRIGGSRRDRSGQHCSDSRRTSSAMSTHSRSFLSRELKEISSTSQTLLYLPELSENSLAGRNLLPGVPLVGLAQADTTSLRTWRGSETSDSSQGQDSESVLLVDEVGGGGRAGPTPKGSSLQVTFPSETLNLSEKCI
Chain of FP receptor (A0ABI7XJ69 1-366): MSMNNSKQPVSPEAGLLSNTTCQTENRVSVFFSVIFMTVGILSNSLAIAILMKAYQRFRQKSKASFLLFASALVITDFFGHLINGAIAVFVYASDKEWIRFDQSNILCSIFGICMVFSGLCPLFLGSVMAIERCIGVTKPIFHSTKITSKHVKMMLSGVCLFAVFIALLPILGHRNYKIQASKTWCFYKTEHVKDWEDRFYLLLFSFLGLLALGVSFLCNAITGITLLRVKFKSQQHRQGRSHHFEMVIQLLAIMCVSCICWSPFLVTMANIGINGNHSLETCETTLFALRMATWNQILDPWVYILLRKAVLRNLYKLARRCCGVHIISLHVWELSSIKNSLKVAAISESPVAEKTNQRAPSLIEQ
Procedure for DP/EP2: (§1) Activity at different prostanoid receptors was measured in vitro in isolated smooth muscle preparations. FP-activity was measured as contraction of the isolated feline iris sphincter. EP4 -activity was measured as relaxation of smooth muscle of isolated rabbit jugular vein. TP-vasoconstrictor activity was measured as contraction of rings of the isolated rat thoracic aorta.
Procedure for EP1: Activity at different prostanoid receptors was measured in vitro in isolated smooth muscle preparations.
Procedure for EP3: as §1
Procedure for EP4: as §1
Procedure for FP receptor: as §1
Procedure for TP: as §1

Turning to `COC(=O)CCC/C=C\C[C@@H]1[C@@H](COP(=O)(O)CCc2ccccc2)[C@H](O)C[C@@H]1O`, the EC50 at FP receptor, in the data set on DP/EP2 and with EP3 was more than 10000 nM each time. Further, the “FP/EP4 Ratio” value on EP4 was more than 27. Further, the IC25 – broadly, the point of the concentration-response curve where the effect stands at 25% – at EP4 was 0.365 µM.
Regarding `O=C(O)CCC/C=C\C[C@@H]1[C@@H](COP(=O)(O)CCc2ccccc2)[C@H](O)C[C@@H]1O`, at FP receptor, the EC50 is more than 10000 nM.
On to `CCOP(=O)(CCc1ccccc1)OC[C@@H]1[C@@H](C/C=C\CCCC(=O)O)[C@@H](O)C[C@H]1O` (some centres unmarked), for which the EC50 on FP receptor is more than 10000 nM. On EP4, the “FP/EP4 Ratio” value is more than 0.15 and the 25% effect concentration (IC25) was found to be 66.3 µM.
Turning to `COP(=O)(CCc1ccccc1)NC[C@@H]1[C@@H](C/C=C\CCCC(=O)O)[C@@H](O)C[C@H]1O` (some centres unmarked), the EC50 on FP receptor was found to be 2140 nM. Besides, at EP4, the “FP/EP4 Ratio” value was 2.8 and the IC25 is 0.767 µM.
For `CCCCC[C@@H](/C=C/[C@@H]1[C@@H](C/C=C\CCCC(=O)O)[C@@H](O)C[C@H]1OC(=O)C(C)(C)C)OC(=O)C(C)(C)C` [11,15-dipivaloyl PGF2α], the ocular hypotensive activity result in data set [1] is on record as “known to have ocular hypotensive activity”.
Regarding `COP(=O)(CCc1ccccc1)OC[C@@H]1[C@@H](C/C=C\CCCC(=O)O)[C@@H](O)C[C@H]1O` (stereo partly drawn) [Example 3, 7-[3α,5α-Dihydroxy-2-β-[[methoxy(2-phenylethyl)phosphinyl]oxymethyl]cyclopentyl]-5Z-heptenoic acid], in data set [2], the “Decrease in IOP (mm Hg) at 2 HR” value was -1.1 mm Hg, the “Decrease in IOP (mm Hg) at 4 HR” value is listed as -2.9 mm Hg, the “Decrease in IOP (mm Hg) at 6 HR” value is -3.5 mm Hg and the “Decrease in IOP (mm Hg) at 24 HR” value was determined as 0.4 mm Hg.
`COC(=O)CCC/C=C\C[C@@H]1[C@@H](CNP(=O)(CCc2ccccc2)OC)[C@H](O)C[C@@H]1O` (some centres unmarked) [Example 7]: in data set [2], the “Decrease in IOP (mm Hg) at 2 HR” value was -3.3 mm Hg, the “Decrease in IOP (mm Hg) at 4 HR” value is -4.1 mm Hg, the “Decrease in IOP (mm Hg) at 6 HR” value is -5.1 mm Hg and the “Decrease in IOP (mm Hg) at 24 HR” value is listed as -3.5 mm Hg.
In the case of `CCCCC[C@H](O)/C=C/[C@H]1[C@H](O)CC(=O)[C@@H]1C/C=C\CCCC(=O)O` [PGE2], the ocular hypotensive activity entry in data set [1] is listed as “possess ocular hypotensive activity; also recorded: highly effective ocular hypotensive agents”.
As to `CCCCC[C@H](O)/C=C/[C@@H]1[C@@H](CCCCCCC(=O)O)[C@@H](O)C[C@H]1O` [PGF1α], the ocular hypotensive activity result in [1] is “highly effective ocular hypotensive agents”.
As to `CCCCC[C@H](O)/C=C/[C@@H]1[C@@H](C/C=C\CCCC(=O)O)[C@@H](O)C[C@H]1O` [PGF2α], in the data set on ocular surface (in vivo), the “ocular surface side effects” value is “ocular surface (conjunctival) hyperemia and foreign-body sensation”.
`COP(=O)(CCc1ccccc1)OC[C@@H]1[C@@H](C/C=C\CCCC(=O)O)[C@@H](O)C[C@H]1O` (some centres unmarked) [drawing 10]: the EC50 at FP receptor is 195 nM; on TP, more than 10 µM; with EP1 it was 10000 nM; with DP/EP2, more than 10000 nM; in the data set on EP3, 575 nM.
In the case of `COC(=O)CCC/C=C\C[C@@H]1[C@@H](CNP(=O)(CCc2ccccc2)OC)[C@H](O)C[C@@H]1O` (some centres unmarked) [drawing 14], the EC50 at FP receptor was 252 nM; on TP, more than 10 µM; in the data set with EP3 it was more than 10000 nM.
For the molecule `CCCCC[C@H](O)/C=C/[C@@H]1[C@@H](C/C=C\CCCC(=O)OC(C)C)[C@@H](O)C[C@H]1O` [isopropyl ester of PGF2α], in the data set with ocular surface (topical ocular use, humans), the “ocular surface side effects” value is “ocular surface (conjunctival) hyperemia and foreign-body sensation”. The “hypotensive potency versus the parent compound PGF2α” value in [1] (attributed to more effective penetration through the cornea) is on record as “significantly greater hypotensive potency than the parent compound”. In addition, the ocular hypotensive activity entry in data set [1] is “the most potent ocular hypotensive agent ever reported”.
